BindingDB's records for doi:10.1021/jm070643q (Universit&#224, 2007)

Biological target: beta-lactamase AmpC (Escherichia coli) (UniProt P00811)
Experiment: Inhibition of Escherichia coli beta-lactamase

Chain of beta-lactamase AmpC (Escherichia coli) (P00811 whole entry, looked up): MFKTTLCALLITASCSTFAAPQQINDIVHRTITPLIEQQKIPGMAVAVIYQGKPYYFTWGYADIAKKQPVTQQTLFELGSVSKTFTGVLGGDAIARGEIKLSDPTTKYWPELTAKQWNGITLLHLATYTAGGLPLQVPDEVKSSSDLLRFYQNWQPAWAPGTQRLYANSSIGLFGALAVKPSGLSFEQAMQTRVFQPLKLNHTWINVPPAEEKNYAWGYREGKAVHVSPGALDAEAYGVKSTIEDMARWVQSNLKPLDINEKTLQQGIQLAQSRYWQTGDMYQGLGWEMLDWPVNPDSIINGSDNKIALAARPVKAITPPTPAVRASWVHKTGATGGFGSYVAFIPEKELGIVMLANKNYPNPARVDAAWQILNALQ

| SMILES | Ki [nM] |
| --- | --- |
| O=CNCc1ccc2sc(B(O)O)cc2c1 [5-formylaminomethylbenzo[b]thiophen-2-ylboronic acid] | 450 |
| OB(O)c1cc2cc(Cn3ccnc3)ccc2s1 [5-imidazol-1-yl-methylbenzo[b]thiophen-2-ylboronic acid] | 82 |
| Cc1ccc2sc(B(O)O)cc2c1 [5-methyl-benzo[b]thiophen-2-ylboronic acid] | 30 |
